The text below walks through data of patent publication US11365217B2, “Peptides for treating telomere dysfunction-associated diseases and uses thereof” (priority 2018, dated 2022).

“Also recorded” adds a separate entry of the source. Non-standard residues stand in square brackets, D forms with d. No end group written: not given here.

In assay [1] the test system is Human cervical carcinoma cells Hela. Put plainly: Telomere DNA damage in Hela cells under X-ray irradiation, detected by FISH. The format is cell-based. As to conditions: peptide 4 h; for telomere DNA damage caused by irradiation of X rays: 5-Gy X ray for 1 h. As for the experimental part:
Human cervical carcinoma cells Hela were respectively treated with various peptides (as shown in SEQ ID NOs:1-26 in Table 1) for 4 h, and then the cells treated with the same peptide were divided into two groups, which were respectively subjected to 0-Gy and 5-Gy irradiation of X ray for 1 h and detected for telomere DNA damage using fluorescence in situ hybridization (FISH).

Assay [2] relates to carbon tetrachloride-induced liver fibrosis in C57BL/6 mice. Put plainly: DST8 in carbon tetrachloride-induced liver fibrosis in mice. Format: in vivo. The conditions noted are these: 1 mg/kg intraperitoneal weekly, 4 weeks, Masson staining and Western Blot, control GE8. As for the experimental part:
12 6 week old wild female C57BL/6 mice were equally divided into four groups, where two groups of mice were intraperitoneally injected with a solution of 10% carbon tetrachloride in olive oil three times a week (on every Monday, Wednesday and Friday, 5 μL per gram of body weight), and the other two groups of mice were intraperitoneally injected with an equal amount of olive oil as control. The two groups injected with carbon tetrachloride were intraperitoneally injected with DST8 (SerArgAsnGlyThrGluGluThr, in D-amino acids), 1 mg per kilogram of body weight) and GE8 (SEQ ID NO:24), respectively, 4 hours before the first injection of carbon tetrachloride in each week. The two control groups were also intraperitoneally injected with DST8 (1 mg per kilogram of body weight) and GE8, respectively, 4 hours before the first injection of olive oil in each week. After 4 consecutive weeks of administration, the liver was isolated, embedded with paraffin, sectioned and subjected to Masson staining and Western Blot analysis.
Background: Immunoblotting shows a protein as a band on a membrane.

The test system of assay [3] is bleomycin-induced pulmonary fibrosis in mice. Put plainly: ST8 in bleomycin-induced pulmonary fibrosis in mice (intratracheal perfusion). The format is in vivo. As for the experimental part: 4 hours later, the mice were all intratracheally perfused with bleomycin (3 mg per kilogram of body weight), and 21 days after the perfusion of peptide, the mice were subjected to endotracheal intubation for the detection of respiratory function. The type II cells were sorted by flow cytometry and calculated for the proportion. The lung tissue RNA was extracted and subjected to real-time quantitative PCR for the detection of mRNA expression of NG2, […], s100a4, α-SMA and Col6a, and the lung proteins were also extracted and detected by Western Blot for the expression of FBW7, TPP1, α-SMA and internal reference GAPDH. The lung tissues were embedded with paraffin, sectioned, subjected to Masson and H&E staining and detected by immunofluorescence assay for the expression of α-SMA. Moreover, 10 mg of lung tissues were employed for the determination of hydroxyproline content; and the telomere length of type II cells (SPC+telomere probe) was detected by FISH.

Assay [4] relates to mice with overexpression of FBW7 in lung tissues. Put plainly: ST8 in mice intratracheally perfused with FBW7-lentivirus (overexpression of FBW7 in lung). The format is in vivo. The conditions noted are these: control GE8. The procedure:
4 hours later, the two groups of mice perfused with ST8 were respectively intratracheally perfused with a control- or FBW7-lentivirus, and the two groups of mice perfused with GE8 were also respectively intratracheally perfused with the control- or FBW7-lentiviruses. The perfusion was performed every other 4 days in a total number of 4. On the fourth day after the fourth perfusion, the mice were subjected to endotracheal intubation for the detection of respiratory function. The type II cells were sorted by flow cytometry and calculated for the proportion. The lung tissue RNA was extracted and subjected to real-time quantitative PCR for the detection of mRNA expression of α-SMA, Col6a, and MMP3, and the lung proteins were also extracted and detected by Western Blot for the expression of FBW7, TPP1, SPC, α-SMA and internal reference GAPDH. The lung tissues were embedded with paraffin, sectioned, subjected to Masson and H&E staining and detected by immunofluorescence assay for the expression of α-SMA. Moreover, the proportion of lung type II epithelial cells (SPC positive cells) was obtained by immunofluorescence assay; and the telomere length of type II cells (SPC+telomere probe) was detected by FISH.

For assay [5], the system named is mice under X-ray irradiation. Put plainly: DYK21 applied to dorsal skin of mice with or without X-ray irradiation (skin aging, weight loss, premature death).
From the text: 48 2-4 month old wild mice were equally divided into four groups, and the hair in a 2 cm×2 cm region on the back of each of the mice was removed. […] The mice were photographed and weighed every day, and sacrificed on the 8th day to collect the skin tissues.
For assay [6], the system named is bleomycin-induced pulmonary fibrosis in mice. Briefly: YK21 in bleomycin-induced pulmonary fibrosis in mice (intratracheal perfusion). Format: in vivo. As for the experimental part:
The time program of this experiment was shown in FIG. 1E, specifically, 4 hours later, the mice were all intratracheally perfused with bleomycin (3 mg per kilogram of body weight), and 20 hours after the perfusion of bleomycin, two groups of mice were respectively received a second perfusion of YK21 and a second perfusion of YK21h. After 21 days of the first perfusion of peptide, the mice were all subjected to endotracheal intubation for the detection of respiratory function, and the lung tissue RNA was extracted and subjected to real-time quantitative PCR to detect the mRNA expression of TPP1 and SPC. The lung tissues were embedded with paraffin, sectioned, subjected to Masson and H&E staining and detected by immunofluorescence assay for the expression of α-SMA. Moreover, 10 mg of lung tissues were employed for the determination of hydroxyproline content; and the telomere length of alveolar epithelial type II stem cells (SPC+telomere probe) and the telomere DNA damage in lung tissues (53BP1+telomere probe) were detected by FISH.

Setting [7] is: dorsal skin application 7 days, 4-Gy X-ray daily, compared to DCTL1.
Where [8] appears, read: lung tissue mRNA, real-time quantitative PCR, bleomycin mice, vs YK21h.

KTEETGNRSGRRRQRRKKRGY [DKY21]: the “telomere DNA damage caused by irradiation of X rays” value (“telomere DNA damage caused” below) in assay [1] was “inhibitory effect”.
Take SRNGTEET [DST8]: the “liver fibrosis caused by carbon tetrachloride” value in assay [2] was “prevent the liver fibrosis; also recorded: significantly inhibit”.
As for SRNGTEET [ST8], in assay [3] (1 mg/kg intratracheal, bleomycin 3 mg/kg, day 21, control GE8), the “respiratory dysfunction in mice caused by bleomycin” value is listed as “alleviate”. For the same substance, the “telomere length of type II cells” value in assay [3] (FISH, bleomycin mice, control GE8) is recorded as “extend the telomere”. The “bleomycin-induced pulmonary fibrosis in mice” value in assay [3] (Masson, H&E, α-SMA, fibrosis marker mRNA, control GE8) was “inhibitory effect”. For the same substance, the “FBW7 expression in lung” value in assay [3] (Western Blot, bleomycin mice, control GE8) is reported as “inhibit FBW7”. For the same substance, the “proportion of lung type II epithelial cells” value in assay [3] (flow cytometry, bleomycin mice, control GE8) is recorded as “improved”. Also, in assay [1], the “telomere DNA damage caused” value is listed as “significantly inhibiting”. The “respiratory dysfunction caused by the overexpression of FBW7” value in assay [4] (1 mg/kg intratracheal, FBW7-lentivirus perfused 4 times) is “significant role in alleviating”. In assay [4] (FBW7-lentivirus mice), the “decrease in the proportion of type II epithelial cells caused by the overexpression of FBW7” value is on record as “significant role in alleviating”, the “pulmonary fibrosis caused by the overexpression of FBW7” value is on record as “significant role in alleviating” and the “reduction in the expression of TPP1 caused by the overexpression of FBW7” value is reported as “significant role in alleviating”. Besides, the “telomere shortening caused by the overexpression of FBW7” value in assay [4] (FISH, FBW7-lentivirus mice) is “significant role in alleviating”.
In the case of “TyrGlyArgLysLysArgArgGluArgArgArgGlySerArgAsnGlyThrGluGluThrLys [DYK21] ([dY]G[dR][dK][dK][dR][dR][dE][dR][dR][dR]G[dS][dR][dN]G[dT][dE][dE][dT][dK])”, the “telomere DNA damage caused” value in assay [1] was “inhibitory effect”. Besides, in assay [5] (H&E and Masson staining, 4-Gy X-ray daily for 7 days, vs DCTL1), the “skin damage and fibrous tissue proliferation (skin fibrosis) caused by X-ray irradiation” value is “completely free of skin fibrosis; also recorded: significant inhibitory effect”. In addition, the “number of dermal stem cells” value in assay [5] (application to the dorsal skin of mice) was “significant increase”. The “number of hair follicles” value in assay [5] (application to the dorsal skin of mice, irradiation not mentioned) is “significant increase”. Moreover, in assay [5] (compared to DCTL1), the “acute death caused by X-ray irradiation” value is recorded as “alleviated the acute death to some extent”, the “life span under X-ray irradiation” value is listed as “prolonged the life of some mice” and the “weight loss caused by X-ray irradiation” value was “inhibited the weight loss”. Also, in assay [5] (setting [7]), the body weight entry is “larger in body weight” and the “number of hair follicles” value is recorded as “more hair follicles”. The fibrosis area entry in assay [5] (skin, X-ray irradiation, vs DCTL1) is “smaller fibrosis area”.
Take YGRKKRRERRRGSRNGTEETK: in assay [6] (1 mg/kg intratracheal, bleomycin 3 mg/kg, day 21, compared to control peptide YK21h), the “respiratory function in mice” value is reported as “improve the lung respiratory function; also recorded: significantly improve”. In addition, the “pulmonary fibrosis induced by bleomycin” value in assay [6] (1 mg/kg intratracheal, bleomycin 3 mg/kg, day 21, hydroxyproline, Masson, H&E, α-SMA, vs YK21h) was “prevent the lung aging damage and pulmonary fibrosis; also recorded: inhibit”. Besides, the “telomere length of type II epithelial cells” value in assay [6] (FISH (SPC+telomere probe), bleomycin mice, vs YK21h) was “extend telomere length; also recorded: increase”. Moreover, the “number of lung stem cells” value in assay [6] (intratracheal administration to mice in one time) was “increase the number of lung stem cells”. In assay [6] (setting [8]), the “expression of SPC” value is listed as “increase” and the “expression of TPP1” value was “increase”. Besides, the “telomere DNA damage at a basic level” value in assay [1] (0-Gy) was “significantly reduce”. The “telomere DNA damage caused” value in assay [1] was “completely inhibit”.
